Activity calls are given as the source filed them.
Experiments:
Melanocortin receptor 4 = Melanocortin receptor 4 (Homo sapiens, UniProt P32245); format: functional, cell-based;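 also: Cell-based assay with luminescence read-out, confirmatory dose-response testing for agonist activity of biased ligands at MC4R; human U2OS cells with tagged receptor and beta-arrestin; potency of agonists that increase receptor coupling to beta-arrestin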
[1] = Luminescence Cell-Based Dose Retest to Confirm Inhibitors of Cancer Stem Cells. [Related pubchem assays (depositor defined):AID2717, AID2721]; format: functional; conditions: Homo sapiens
HEK293 = assay: EBV LMP1 TES2 canonical NF-kB signalling blockers – cell-based, HEK293, luciferase, cherry-pick, dose response (AID 588343); format: functional; conditions: Homo sapiens
Cytochrome P450 2D6 = Cytochrome P450 2D6 (Homo sapiens, UniProt P10635);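 also: CYP2D6 member of a cytochrome P450 panel assay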
Cytochrome P450 3A4 = Cytochrome P450 3A4 (Homo sapiens, UniProt P08684);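 also: CYP3A4 tested as one member of a cytochrome P450 panel screen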
[2] = target: T1, Carboxy-terminal domain RNA polymerase II polypeptide A small phosphatase 1 (Homo sapiens, UniProt Q9GZU7); assay: CTDSP1 inhibitors, concentration-response, biochemical, absorbance readout, ultra-high-throughput screen actives (AID 540297); format: functional
T1 sequence (Q9GZU7 whole entry): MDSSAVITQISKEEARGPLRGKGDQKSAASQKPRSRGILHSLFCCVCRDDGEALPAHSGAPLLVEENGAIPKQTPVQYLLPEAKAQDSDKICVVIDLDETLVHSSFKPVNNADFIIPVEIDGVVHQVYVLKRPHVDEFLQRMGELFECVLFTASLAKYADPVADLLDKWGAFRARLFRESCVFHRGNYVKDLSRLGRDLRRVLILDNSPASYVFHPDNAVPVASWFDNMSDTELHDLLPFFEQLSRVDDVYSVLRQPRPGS

[3] = target: Dual specificity tyrosine-phosphorylation-regulated kinase 1A (Rattus norvegicus, UniProt Q63470); format: biochemical, Homo sapiens
[4] = target: T2, Replicative DNA helicase DnaB (Mycobacterium tuberculosis, UniProt P9WMR3); assay: DnaB intein splicing inhibitors, dose response, biochemical, cell-free fluorescence (AID 449749); format: functional
T2 sequence (P9WMR3 whole entry): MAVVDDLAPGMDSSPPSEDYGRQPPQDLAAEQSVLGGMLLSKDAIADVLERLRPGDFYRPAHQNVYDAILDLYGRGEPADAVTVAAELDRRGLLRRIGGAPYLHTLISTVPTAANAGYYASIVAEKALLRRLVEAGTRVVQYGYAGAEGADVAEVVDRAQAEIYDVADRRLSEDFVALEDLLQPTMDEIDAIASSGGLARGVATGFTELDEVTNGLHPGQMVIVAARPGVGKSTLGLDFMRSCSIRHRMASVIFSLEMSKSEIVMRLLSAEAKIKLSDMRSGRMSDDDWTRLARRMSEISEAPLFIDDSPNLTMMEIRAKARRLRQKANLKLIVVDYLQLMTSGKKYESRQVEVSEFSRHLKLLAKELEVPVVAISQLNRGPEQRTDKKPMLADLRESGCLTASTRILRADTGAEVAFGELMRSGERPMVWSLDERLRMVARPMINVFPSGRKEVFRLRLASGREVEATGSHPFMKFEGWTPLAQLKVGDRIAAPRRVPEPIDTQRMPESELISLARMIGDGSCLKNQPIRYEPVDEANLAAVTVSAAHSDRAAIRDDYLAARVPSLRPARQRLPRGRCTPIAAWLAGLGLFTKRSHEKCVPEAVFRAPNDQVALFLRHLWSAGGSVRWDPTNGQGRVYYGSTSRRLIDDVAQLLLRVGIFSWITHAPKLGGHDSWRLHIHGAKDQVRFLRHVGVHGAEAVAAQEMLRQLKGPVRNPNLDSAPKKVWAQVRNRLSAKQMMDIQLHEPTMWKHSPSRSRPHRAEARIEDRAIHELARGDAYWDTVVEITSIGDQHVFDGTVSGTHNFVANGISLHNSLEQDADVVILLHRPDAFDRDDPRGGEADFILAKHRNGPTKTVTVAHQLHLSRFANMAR

Escherichia coli = assay: microbe, parasite or virus in culture
Protein RecA = target: T3, Protein RecA (Mycobacterium tuberculosis, UniProt P9WHJ3); assay: Fluorescence Cell-Free Homogeneous Dose Retest to Identify Inhibitors of RecA-Intein Splicing Activity. [Related pubchem assays (depositor defined):AID2097, AID2223, AID489010, AID492950]; format: functional
T3 sequence (P9WHJ3 whole entry): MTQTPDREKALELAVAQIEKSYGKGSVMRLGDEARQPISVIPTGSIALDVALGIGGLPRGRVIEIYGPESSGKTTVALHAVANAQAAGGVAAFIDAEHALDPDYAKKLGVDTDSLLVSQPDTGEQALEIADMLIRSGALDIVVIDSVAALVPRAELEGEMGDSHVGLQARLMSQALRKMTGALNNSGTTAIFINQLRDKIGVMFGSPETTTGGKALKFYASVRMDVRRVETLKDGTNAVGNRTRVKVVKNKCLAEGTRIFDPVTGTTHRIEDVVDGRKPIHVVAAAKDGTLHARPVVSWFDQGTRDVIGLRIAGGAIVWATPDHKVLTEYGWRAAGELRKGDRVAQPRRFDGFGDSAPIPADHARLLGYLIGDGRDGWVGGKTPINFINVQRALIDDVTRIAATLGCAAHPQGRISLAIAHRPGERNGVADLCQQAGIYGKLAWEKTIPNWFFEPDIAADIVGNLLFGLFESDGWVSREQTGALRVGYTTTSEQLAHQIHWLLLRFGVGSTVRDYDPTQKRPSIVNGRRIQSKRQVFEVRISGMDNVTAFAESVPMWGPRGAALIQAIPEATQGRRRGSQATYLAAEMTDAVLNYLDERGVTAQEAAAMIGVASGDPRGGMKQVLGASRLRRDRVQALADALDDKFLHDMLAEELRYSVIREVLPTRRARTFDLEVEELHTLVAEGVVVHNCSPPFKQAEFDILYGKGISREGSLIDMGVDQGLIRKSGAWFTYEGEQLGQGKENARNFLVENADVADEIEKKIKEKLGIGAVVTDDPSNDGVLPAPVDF

[5] = target: T4, Endoribonuclease toxin MazF (Escherichia coli K-12, UniProt P0AE70); assay: activation of MazEF endoribonuclease cleavage – biochemical, fluorescence, single-stranded RNA substrate, uHTS hits, dose response (AID 588481); format: functional
T4 sequence (P0AE70 whole entry): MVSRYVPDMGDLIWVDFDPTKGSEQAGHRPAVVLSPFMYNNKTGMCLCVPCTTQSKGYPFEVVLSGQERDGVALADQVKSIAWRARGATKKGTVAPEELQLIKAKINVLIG

[6] = target: T4, Endoribonuclease toxin MazF; assay: substrate-only fluorescence increase artefacts – biochemical, single-stranded RNase substrate, counter-screen for MazEF activator project, dose response (AID 588502); format: functional
[7] = viability of HCT116 lacking mutant beta-catenin – cell-based, human colon tumor, dose response (AID 1045); format: functional;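 also: HCT116 colon tumor cells with beta catenin knocked out; cells exposed to compound for 60 hours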
[8] = viability of PTEN-deleted HCT116 cells – cell-based, HCT116 PTEN knockout, dose response (AID 1047); format: functional;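 also: HCT116 colon tumor cells with PTEN knocked out; cells exposed to compound for 60 hours before readout; potency for loss of cell viability measured by luminescence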
Troponin, cardiac muscle = Troponin, cardiac muscle (Homo sapiens, UniProt P19429+P45379+P63316); assay: Fluorescence-based biochemical high throughput dose response assay for activators of the calcium sensitivity of cardiac Regulated Thin Filaments (RTF). [Related pubchem assays (depositor defined):AID493008, AID493018, AID504382, AID504383]; format: protein-complex assay
Protein Wnt-3a = Protein Wnt-3a (Mus musculus, UniProt P27467); assay: antagonism of Wnt3a pathway luciferase reporter – Wnt-LIGHT cells, luminescence, selectivity assay for Gli-SUFU antagonist project, dose response (AID 651570); format: functional; conditions: read-out: IC50_Mean;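 also: Wnt-LIGHT reporter cells stimulated with conditioned medium from Wnt3a-producing cells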
[9] = target: T5, Short transient receptor potential channel 4 (Mus musculus, UniProt Q9QUQ5); assay: block of DAMGO-driven TRPC4 calcium entry – cell-based, HEK293 TRPC4/mu-opioid, Fluo-4 calcium, dose response (AID 434942); format: functional;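 also: potency of inhibitors blocking the TRPC4 calcium response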
T5 sequence (Q9QUQ5 whole entry): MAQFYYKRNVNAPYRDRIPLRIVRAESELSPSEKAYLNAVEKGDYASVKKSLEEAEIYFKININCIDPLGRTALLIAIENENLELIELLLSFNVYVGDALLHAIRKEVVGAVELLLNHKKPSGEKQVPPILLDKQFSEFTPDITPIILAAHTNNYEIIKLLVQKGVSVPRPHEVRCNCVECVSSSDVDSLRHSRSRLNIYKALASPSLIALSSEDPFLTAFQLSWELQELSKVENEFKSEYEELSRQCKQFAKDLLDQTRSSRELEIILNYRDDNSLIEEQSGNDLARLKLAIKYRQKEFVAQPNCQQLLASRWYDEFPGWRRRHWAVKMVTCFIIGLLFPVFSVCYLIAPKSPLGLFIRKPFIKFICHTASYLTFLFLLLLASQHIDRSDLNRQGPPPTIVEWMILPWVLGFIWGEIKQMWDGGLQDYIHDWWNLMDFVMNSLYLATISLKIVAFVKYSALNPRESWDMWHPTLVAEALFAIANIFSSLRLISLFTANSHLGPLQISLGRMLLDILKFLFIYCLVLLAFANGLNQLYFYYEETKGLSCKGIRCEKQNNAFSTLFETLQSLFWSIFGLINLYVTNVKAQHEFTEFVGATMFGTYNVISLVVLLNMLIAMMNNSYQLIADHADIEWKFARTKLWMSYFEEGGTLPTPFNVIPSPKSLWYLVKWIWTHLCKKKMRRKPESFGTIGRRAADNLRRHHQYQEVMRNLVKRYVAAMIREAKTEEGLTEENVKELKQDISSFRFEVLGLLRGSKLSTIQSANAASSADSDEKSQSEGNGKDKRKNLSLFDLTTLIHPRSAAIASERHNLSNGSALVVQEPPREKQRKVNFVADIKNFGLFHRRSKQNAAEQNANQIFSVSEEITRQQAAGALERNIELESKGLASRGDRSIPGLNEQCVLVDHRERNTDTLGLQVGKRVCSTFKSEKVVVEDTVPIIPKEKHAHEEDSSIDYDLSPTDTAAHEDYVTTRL

COc1ccc(-c2sc3ccc(N4CCOCC4)cc3c2C#CC2(O)CCCCC2)cc1
EC50 (Melanocortin receptor 4): > 89.2 µM (inactive)
AC50 [1]: 0.749 µM (active)

O=C(C=C1SCCS1)/C=C/c1ccco1
AC50 (HEK293): 10.8 µM (active)
AC50 (Cytochrome P450 2D6): 17.8 µM (inconclusive)
AC50 (Cytochrome P450 3A4): 15.8 µM (inconclusive)
IC50 [2]: 7.85 µM (active)

O=C(NCc1ccco1)c1sc2ccccc2c1Cl
AC50 [3]: 7.39 µM (active)

CC(=O)c1ccc(-c2cccc(-c3nc4ccccn4c3NC3CCCCC3)c2)cc1
AC50 [4]: 0.377 µM (active)
AC50 (Escherichia coli): 299 µM (active)
EC50 (Protein RecA): 0.178 µM (active)

O=c1oc(/C=C/c2ccco2)nc2sc3c(c12)CCC3
EC50 [5]: > 99 µM (inactive)
EC50 [6]: > 99 µM (inactive)

N#C/C(=C\c1ccc(-c2ccc(F)cc2)o1)C(=O)Nc1nc(-c2cccs2)cs1
EC50 [5]: > 99 µM (inactive)
EC50 (Melanocortin receptor 4): > 89.2 µM (inactive)
EC50 [7]: 25.6 µM (active)
EC50 [6]: 27.2 µM (inactive)
EC50 [8]: 30 µM (active)
EC50 (Troponin, cardiac muscle): > 71.5 µM (inactive)

COc1ccc(O)c(-c2cc(-c3cccs3)[nH]n2)c1
AC50 [3]: 10.6 µM (active)

COc1ccccc1-c1c(-c2ccc(O)cc2O)n[nH]c1C(F)(F)F
IC50 (Protein Wnt-3a): 2.07 µM (active)

CC1CC(=O)N(c2ccc(NCc3ccc(Cl)cc3)c([N+](=O)[O-])c2)C1=O (centres undefined)
EC50 [5]: 96.1 µM (inactive)
EC50 [6]: > 99 µM (inactive)

Cc1cc(Nc2ccccc2)nc2cc(O)ccc12
EC50 [9]: 3.76 µM (active)
AC50 [3]: 4.44 µM (active)
